Where two headings read alike, the source gives them in different places.
How the values were obtained:
[1] = tested on: DOHH2 human B-cell carcinoma cells; assay: Lactic dehydrogenase release from DOHH2 cells; assay type: cell-based
Experimental: (§1) Experiment 4 was designed to confirm apoptotic cell death of U251 cells induced by ATA, AQA, AHA, and ATAC by measuring release of lactic dehydrogenase into the cell medium. For serum lactate dehydrogenase determination, reaction supernatants ([…]) were pipetted into the wells of 96-well plates, followed by the addition of […] lactate solution (36 mg/mL in PBS) and […] INT (iodonitrotetrazolium chloride, 2-(4-iodophenyl)-3-(4-nitrophenyl)-5-phenyl-2H-tetrazolium chloride) solution (2 mg/mL in PBS). The enzymatic reaction was started by addition of […] of NAD^+/diaphorase solution (3 mg/mL NAD^+; 2.3 mg solid/mL diaphorase). After 1 h, optical densities were measured with a microplate reader using a 490 nm filter. The amount of LDH released was expressed as a percentage of the value obtained in comparative cells where cells were 100% lysed by 1% Triton X-100.
(§2) Experiment 16 was designed to determine if apoptotic cell death of DOHH2 human B-cell carcinoma cells was induced by ATA, AQA, AHA, and ATAC as determined by the release of lactic dehydrogenase into the cell medium. The protocol was identical to that used in Experiment 9(d) except that DOHH2 human B-cell carcinoma cells were used.

[2] = tested on: human colorectal adenocarcinoma cell line LS180; assay: LS180 cell growth in zymosan-activated human serum (MTT cell viability); assay type: cell-based; conditions: LS180 cells, EMEM, 15% human serum, n=4, read-out: IC50, inhibition of LS180 cell growth induced by zymosan-activated human serum complement
Experimental: (§3) Experiment 1 was designed to determine the effect of ATA, AHA, AQA and ATAC on U251 cell growth in the presence of complement activated human serum. In Experiment 1(a), U251 cells were treated with various concentrations of human serum (1, 5, 7.5, 10, 12.5, 15%) in DMEM and incubated with 1 μg/mL zymosan at 37° C. for 72 h. Control U251 cells (CON) were incubated in fresh DMEM only. As a further control U251 cells were treated with 10% human serum heated at 56° C. for 30 min to heat inactivate complement (HIS) before incubation with 1 μg/ml zymosan. In Experiment 1(b), U251 cells were treated with various concentrations of ATAC, ATA, AQA and AHA (0.1, 1, 5, 10, 30, 50 μM) in DMEM with 15% human serum and incubated with 1 μg/mL zymosan at 37 ° C. for 72 h. In both Experiments 1(a) and 1(b), following incubation, cell viability was evaluated by MTT (3-[4,5-dimethylthiazol-2-yl]-2,5 diphenyl tetrazolium bromide) assays by adding MTT to the cell cultures to reach a final concentration of 1 mg/mL. Following a 1 h incubation at 37° C., the dark crystals formed were dissolved by adding a SDS/DMF extraction buffer (300 μL, 20% sodium dodecyl sulfate, 50% N,N-dimethylformamide, pH 4.7). Plates were subsequently incubated overnight at 37° C. and optical densities at 570 nm were measured by transferring 100 μL aliquots to 96-well plates and using a plate reader with a corresponding filter.
Experiment 19 was designed to determine the effect of ATA, AQA, AHA and ATAC on growth of the human colorectal adenocarcinoma LS180 cell line. The protocol was identical to that used in Experiment 17(b) except that colorectal adenocarcinoma cells were utilized and the growth medium was EMEM.

BT 474 cells = assay: Lactic dehydrogenase release from BT 474 cells; assay type: cell-based, human; conditions: n=4, read-out: IC50, lactate dehydrogenase release from BT 474 cells
Experimental: as §1
Experiment 14 was designed to determine if apoptotic cell death of BT 474 cells was induced by ATA, AQA, AHA, and ATAC as determined by the release of lactic dehydrogenase into the cell medium. The protocol was identical to that used in Experiment 5(d) except that BT 474 cells were used.

[3] = tested on: K562 human chronic myelogenous leukemia cells; assay: Lactic dehydrogenase release from K562 cells; assay type: cell-based; conditions: n=4, read-out: IC50, lactate dehydrogenase release from K562 cells
Experimental: as §1
as §2, with “18” for “16”, “K562” for “DOHH2”, “chronic myelogenous leukemia” for “B-cell carcinoma”, “16(b)” for “9(d)”

[4] = tested on: human bone osteosarcoma MNNG cells; assay: MNNG cell growth in zymosan-activated human serum (MTT cell viability); assay type: cell-based; conditions: 15% human serum, n=4, read-out: IC50, inhibition of MNNG cell growth induced by zymosan-activated human serum complement
Experimental: as §3
Experiment 21 was designed to determine the effect of ATA, AQA, AHA and ATAC on growth of the human bone osteosarcoma MNNG cell line. The protocol was identical to that used in Experiment 19 (b) except that human bone osteosarcoma MNNG cells were utilized.

[5] = tested on: U251 malignant glioblastoma human cell line; assay: U251 cell growth in zymosan-activated human serum (MTT cell viability); assay type: cell-based; conditions: 15% human serum, 1 μg/mL zymosan, 72 h, n=4, read-out: IC50, inhibition of U251 cell growth induced by zymosan-activated human serum complement
Experimental: To obtain normal serum, blood samples from healthy individuals were treated at 37° C. for 3 h to promote clotting. Samples were then centrifuged at 3,000 g for 10 min and the clear serum was harvested.
The ATAC used comprised approximately 78% ATA, 15% AQA, and 7% AHA. In addition, ATA, AQA and AHA that had been separated by size exclusion chromatography were also tested individually, their purity having been verified by mass spectrometry.
U251 cells were grown in DMEM medium containing 10% fetal bovine serum (FBS), 100 IU/mL penicillin, and 100 μg/mL streptomycin (Invitrogen™, Carlsbad, Ca.) under humidified 5% CO2 and 95% air until confluence was reached. This usually required 3 days of incubation. Aliquots of these cells (˜2×10^5 cells) were added to 24-well plates.
as §3, with “Following a 1 h incubation at 37° C., the dark crystals formed were dissolved by adding a SDS/DMF extraction buffer (300 μL, 20% sodium dodecyl sulfate, 50% N,N-dimethylformamide, pH 4.7).” left out

U251 cells = assay: Lactic dehydrogenase release from U251 cells; assay type: cell-based, human; conditions: n=4, read-out: IC50, lactate dehydrogenase release from U251 cells
Experimental: as §1

[6] = tested on: A549 human lung cancer cell line; assay: A549 cell growth in zymosan-activated human serum (MTT cell viability); assay type: cell-based; conditions: A549 cells, 15% human serum, n=4, read-out: IC50, inhibition of A549 cell growth induced by zymosan-activated human serum complement
Experimental: as §3
Experiment 5 was designed to determine the effect of ATA, AHA, AQA and ATAC on BxPC-3 cell growth in the presence of complement activated human serum.
Experiment 9 was designed to determine the effect of ATA, AQA, AHA and ATAC on A549 cell growth. The protocol was identical to that used in Experiment 5(b) except A549 cells were used.

BxPC-3 cells = assay: Lactic dehydrogenase release from BxPC-3 cells; assay type: cell-based, human; conditions: n=4, read-out: IC50, lactate dehydrogenase release from BxPC-3 cells
Experimental: as §1
Experiment 8 was designed to confirm apoptotic cell death of BxPC-3 cells induced by ATA, AQA, AHA, and ATAC by the release of lactic dehydrogenase into the cell medium.

[7] = n=4, read-out: IC50, lactate dehydrogenase release from DOHH2 cells

IC50 [1, 7] [µM] | IC50 [2] [µM] | IC50 (BT 474 cells) [µM] | IC50 [3] [µM] | IC50 [4] [µM] | IC50 ([5]; U251 cells) [µM] | IC50 (U251 cells; LDH as % of Triton X-100 lysis) [µM] | IC50 [6] [µM] | IC50 (BxPC-3 cells) [µM] | Molecule | IC50 ([1]; Homo sapiens, DOHH-2, n=4, read-out: IC50, lactate dehydrogenase release from DOHH2 cells) [µM] | IC50 (BT 474 cells; Homo sapiens) [µM] | IC50 ([3]; Homo sapiens) [µM] | IC50 ([5]; U-251, U251 cells) [µM] | IC50 (U251 cells; Homo sapiens, U-251, LDH as % of Triton X-100 lysis) [µM] | IC50 (BxPC-3 cells; Homo sapiens) [µM]
5.1 | 5.1 | 4.9 | 4.6 | 7.5 | 3.8 | 7.7 | 7.5 | 8.1 | aurin hexacarboxylic acid [AHA] |  |  |  |  |  | 
5 | 5.2 | 4.7 | 4.6 | 7.4 | 3.7 | 7.4 | 7.4 | 8 | aurin quadracarboxylic acid [AQA] |  |  |  |  |  | 

Molecule | IC50 [1, 7] [µM] | IC50 [2] [µM] | IC50 (BT 474 cells) [µM] | IC50 [3] [µM] | IC50 [4] [µM] | IC50 ([5]; U251 cells) [µM] | IC50 (U251 cells; LDH as % of Triton X-100 lysis) [µM] | IC50 [6] [µM] | IC50 (BxPC-3 cells) [µM] | IC50 ([1]; Homo sapiens, DOHH-2, n=4, read-out: IC50, lactate dehydrogenase release from DOHH2 cells) [µM] | IC50 (BT 474 cells; Homo sapiens) [µM] | IC50 ([3]; Homo sapiens) [µM] | IC50 ([5]; U-251, U251 cells) [µM] | IC50 (U251 cells; Homo sapiens, U-251, LDH as % of Triton X-100 lysis) [µM] | IC50 (BxPC-3 cells; Homo sapiens) [µM]
O=C(O)C1=CC(=C(c2ccc(O)c(C(=O)O)c2)c2ccc(O)c(C(=O)O)c2)C=CC1=O [ATA, aurin tricarboxylic acid] |  | 4.8 |  |  | 7.2 |  |  | 7.2 |  | 4.9 | 4.8 | 4.7 | 3.5 | 7.6 | 7.9

— patent US10653651B2, “Kit for treating cancer with low molecular weight components of aurin tricarboxylic acid complex” (Aurin Biotech Inc., priority 2014, dated 2020)
